Where “and” joins values, the source holds several entries; their conditions need not be identical. Equal entries are not always repeated.
Tests used:
c-KIT D816V Ba/F3 cells = assay: Cell cycle arrest analysis (PI flow cytometry); type: cell-based; conditions: c-KIT D816V Ba/F3, 0.5 μM, 24 h
GIST-T1 cells [1] = assay: Invasion assay (Transwell); type: cell-based, human; conditions: GIST-T1, 0.05 μM, 48 h
Experimental: The cell invasion assay was performed using Transwell membrane filter inserts (Corning Costar Corp., Corning, NY, USA). GIST-T1 cells were then suspended in serum-free DMEM at 2 × 10^6 cells and seeded in the upper chambers. In the lower chambers, the DMEM medium containing 10% FBS was added. After 48 h, the cells migrating down the membrane were stained with crystal violet.

HMC1.2 cells = assay: Apoptosis analysis (annexinV/PI flow cytometry); type: cell-based, human; conditions: HMC1.2, 1 μM, 48 h
Experimental: (§1) After compound treatment in GIST-T1 and HMC1.2 cells for 24 h, cells were fixed with 70% cold ethanol. Then, cells were incubated with 50 μg propidium iodide/mL solution (PI, Sigma) containing 1 mg RNase A/mL for 30 min in the dark. Cell cycle arrest was analyzed (BD Accuri), and data were processed using BD Accuri^TM C6 software. For apoptosis analysis, compound treatment for 24–48 h, cells were harvested and stained with annexinV and PI solution. 1 × 10^5 cells were analyzed using flow cytometric analysis.

GIST-T1 cells [2] = assay: Apoptosis analysis (annexinV/PI flow cytometry); type: cell-based, human; conditions: GIST-T1, 0.05 μM
Experimental: as §1

c-KIT = c-KIT (Homo sapiens, UniProt P10721); assay: Radiometric biochemical kinase assay on c-KIT; parameters: purchased Reaction Biology Corp. (contract assay service)
Experimental: (§2) Biochemical kinase assays on c-KIT protein kinase were performed at Reaction Biology Corp. (San Diego, CA, USA). […] The kinase assay followed the manufacturer’s instruction. IC50 values were calculated by GraphPad prism 8.0 software (GraphPad Software, San Diego, CA, USA).
Enzymatic inhibitory activities of all synthesized thiazolo[5,4-b]pyridine derivatives against c-KIT were measured using radiometric biochemical kinase assays (Table 1). We first explored the R1 group of the thiazolo[5,4-b]pyridine scaffold.

c-KIT V560G/D816V = target: T1, c-KIT V560G/D816V (Homo sapiens, UniProt P10721, D816V/V560G); assay: ADP-Glo kinase assay on c-KIT V560G/D816V; type: biochemical
T1 construct: purchased Promega VA7063
Experimental: as §2

CDK3/cyclin E2 = target: T2, CDK3/cyclin E2 (Homo sapiens, UniProt Q00526); assay: Kinase panel profiling; type: biochemical; conditions: 10 μM ATP
T2 construct: purchased Reaction Biology Corp
Experimental: (§3) Kinase panel profiling was conducted by Reaction Biology Corp. (San Diego, CA, USA). A single dose (1.0 μM) of 6r was tested against 371 recombinant human kinases in the presence of 10 μM ATP.

STK33 = target: T3, STK33 (Homo sapiens, UniProt Q9BYT3); assay: Kinase panel profiling; type: biochemical; conditions: 10 μM ATP
T3 construct: purchased Reaction Biology Corp
Experimental: as §3

TXK = target: T4, TXK (Homo sapiens, UniProt P42681); assay: Kinase panel profiling; type: biochemical; conditions: 10 μM ATP
T4 construct: purchased Reaction Biology Corp
Experimental: as §3

COT1/MAP3K8 = target: T5, COT1/MAP3K8 (Homo sapiens, UniProt P41279); assay: Kinase panel profiling; type: biochemical; conditions: 10 μM ATP
T5 construct: purchased Reaction Biology Corp
Experimental: as §3

ZAK/MLTK = target: T6, ZAK/MLTK (Homo sapiens, UniProt Q9NYL2); assay: Kinase panel profiling; type: biochemical; conditions: 10 μM ATP
T6 construct: purchased Reaction Biology Corp
Experimental: as §3

MLK2/MAP3K10 = target: T7, MLK2/MAP3K10 (Homo sapiens, UniProt Q02779); assay: Kinase panel profiling; type: biochemical; conditions: 10 μM ATP
T7 construct: purchased Reaction Biology Corp
Experimental: as §3

IR = target: T8, IR (Homo sapiens, UniProt P06213); assay: Kinase panel profiling; type: biochemical; conditions: 10 μM ATP
T8 construct: purchased Reaction Biology Corp
Experimental: as §3

MEKK1 = target: T9, MEKK1 (Homo sapiens, UniProt Q13233); assay: Kinase panel profiling; type: biochemical; conditions: 10 μM ATP
T9 construct: purchased Reaction Biology Corp
Experimental: as §3

PKG2/PRKG2 = target: T10, PKG2/PRKG2 (Homo sapiens, UniProt Q13237); assay: Kinase panel profiling; type: biochemical; conditions: 10 μM ATP
T10 construct: purchased Reaction Biology Corp
Experimental: as §3

EPHB2 = target: T11, EPHB2 (Homo sapiens, UniProt P29323); assay: Kinase panel profiling; type: biochemical; conditions: 10 μM ATP
T11 construct: purchased Reaction Biology Corp
Experimental: as §3

DMPK2 = target: T12, DMPK2 (Homo sapiens, UniProt Q6DT37); assay: Kinase panel profiling; type: biochemical; conditions: 10 μM ATP
T12 construct: purchased Reaction Biology Corp
Experimental: as §3

ERK1 = target: T13, ERK1 (Homo sapiens, UniProt P27361); assay: Kinase panel profiling; type: biochemical; conditions: 10 μM ATP
T13 construct: purchased Reaction Biology Corp
Experimental: as §3

FRK/PTK5 = target: T14, FRK/PTK5 (Homo sapiens, UniProt P42685); assay: Kinase panel profiling; type: biochemical; conditions: 10 μM ATP
T14 construct: purchased Reaction Biology Corp
Experimental: as §3

TYK1/LTK = target: T15, TYK1/LTK (Homo sapiens, UniProt P29376); assay: Kinase panel profiling; type: biochemical; conditions: 10 μM ATP
T15 construct: purchased Reaction Biology Corp
Experimental: as §3

NEK3 = target: T16, NEK3 (Homo sapiens, UniProt P51956); assay: Kinase panel profiling; type: biochemical; conditions: 10 μM ATP
T16 construct: purchased Reaction Biology Corp
Experimental: as §3

MINK/MINK1 = target: T17, MINK/MINK1 (Homo sapiens, UniProt Q8N4C8); assay: Kinase panel profiling; type: biochemical; conditions: 10 μM ATP
T17 construct: purchased Reaction Biology Corp
Experimental: as §3

CAMKK1 = target: T18, CAMKK1 (Homo sapiens, UniProt Q8N5S9); assay: Kinase panel profiling; type: biochemical; conditions: 10 μM ATP
T18 construct: purchased Reaction Biology Corp
Experimental: as §3

MAPKAPK5/PRAK = target: T19, MAPKAPK5/PRAK (Homo sapiens, UniProt Q8IW41); assay: Kinase panel profiling; type: biochemical; conditions: 10 μM ATP
T19 construct: purchased Reaction Biology Corp
Experimental: as §3

MEK3 = target: T20, MEK3 (Homo sapiens, UniProt P46734); assay: Kinase panel profiling; type: biochemical; conditions: 10 μM ATP
T20 construct: purchased Reaction Biology Corp
Experimental: as §3

MEK5 = target: T21, MEK5 (Homo sapiens, UniProt Q13163); assay: Kinase panel profiling; type: biochemical; conditions: 10 μM ATP
T21 construct: purchased Reaction Biology Corp
Experimental: as §3

Cc1ccc(NC(=O)c2ccc(CN3CCN(C)CC3)c(C(F)(F)F)c2)cc1-c1cnc2sc(N)nc2c1 [6r]
G0/G1 arrest compared with imatinib (c-KIT D816V Ba/F3 cells): more strongly
invasion capability (GIST-T1 cells [1]): significantly suppressing
production of apoptotic cells (HMC1.2 cells): remarkably induced
production of apoptotic cells (GIST-T1 cells [2]): remarkably induced
IC50 (c-KIT; read-out: IC50 against c-KIT): 140 nM
fold enhanced c-KIT inhibitory activity compared to 6m (c-KIT; versus 6m): 15.5 fold
fold higher c-KIT inhibitory activity than imatinib (c-KIT; versus imatinib): 1.9 fold
IC50 (c-KIT V560G/D816V; ADP-Glo kinase assay, 10 μM ATP): 4770 ± 380 nM
fold higher enzymatic inhibitory activity against c-KIT V560G/D816V compared with imatinib (c-KIT V560G/D816V; versus imatinib): 4.9- to 8.0 fold and 8.0 fold
inhibition at 1 µM (CDK3/cyclin E2): 12.4%
inhibition at 1 µM (STK33): 9.5%
inhibition at 1 µM (TXK): 16.8%
inhibition at 1 µM (COT1/MAP3K8): 9.2%
inhibition at 1 µM (ZAK/MLTK): 50%
inhibition at 1 µM (MLK2/MAP3K10): 13.4%
inhibition at 1 µM (IR): 1.9%
inhibition at 1 µM (MEKK1): 0%
inhibition at 1 µM (PKG2/PRKG2): 9.1%
inhibition at 1 µM (EPHB2): 38.9%
inhibition at 1 µM (DMPK2): 8%
inhibition at 1 µM (ERK1): 11.7%
inhibition at 1 µM (FRK/PTK5): 98.4%
inhibition at 1 µM (TYK1/LTK): 1%
inhibition at 1 µM (NEK3): 0%
inhibition at 1 µM (MINK/MINK1): 0%
inhibition at 1 µM (CAMKK1): 7.2%
inhibition at 1 µM (MAPKAPK5/PRAK): 0%
inhibition at 1 µM (MEK3): 5.2%
inhibition at 1 µM (MEK5): 6.5%
